No end group written: not given here.
Legend:
E. coli ML-35p [1] = assay: Kinetics of permeabilization of the inner bacteria membrane (ONPG); format: cell-based, Escherichia coli
Protocol: (§1) The ability of the antimicrobial peptides for the respective permeabilization of the outer and inner bacteria membrane was tested by way of example on E. coli ML-35p (made available by Dr. R. E. Lehrer, Center for Health Sciences, Los Angeles, Calif., USA). The peptides were incubated in serial dilution with E. coli ML-35p and the time-dependent release of cell-internal components was measured in a slightly modified protocol according to Ericsson et al. (2002). For this purpose, the bacteria were cultured in Luria-Bertani (LB) medium with 100 μg/ml ampicillin (Fluka, Taufkirchen, Germany) until reaching an optical density of 0.4 at 600 nm wavelength. Then, the cells were washed three times by centrifugation at 4000 g for 1 min and subsequent up-take in 10 mM HEPES buffer pH 7.2. Finally, the cells were diluted to an optical density of 0.3 at 600 nm wavelength. To measure the permeabilization of the outer membrane, nitrocefin (Merck, Darmstadt, Germany) was diluted in HEPES buffer to a concentration of 60 μg/ml. The antimicrobial peptides were diluted in HEPES buffer to an end concentration of 12 μM, 24 μM, 48 μM and 96 μM end concentration. In the next step, 50 μl of nitrocefin were admixed with 50 μl of antimicrobial peptide and 50 μl of bacteria suspension such that an end concentration of 20 μg/ml of nitrocefin, 4 μM to 32 μM of antimicrobial peptide and bacteria with an optical density of 0.1 to 600 nm were present. The samples were mixed and the absorption at 500 nm wavelength was measured directly over a period of at least 90 min at 37° C. with regular shaking in a FLUOstar omega Microplate Reader (BMG Labtech, Ortenberg, Germany). The investigation of the permeabilization of the inner membrane was carried out in the same way except that instead of the nitrocefin accordingly 0-nitrophenyl-beta-D-galactoside (ONPG, Sigma-Aldrich) in an end concentration of 100 μg/ml was used and the absorption change was determined at a wavelength of 420 nm. The control used was samples without antimicrobial peptide, the positive control used for the membrane permeabilization was polymyxin B (Sigma-Aldrich) in an end concentration of 5 μM. For the data evaluation, firstly the measurement values of the corresponding negative controls were deducted from the measurement values of the samples, and the difference was then divided by the corresponding measurement values of the permeabilization control. Then, a graphical evaluation was carried out, the calculated values being plotted against the peptide concentration and being fitted with the help of the Origin Pro 8.1 G Software (OriginLab) according to a sigmoidal model. As representative examples, FIGS. 4 and 5 show the graphical evaluation for the kinetic investigation of the permeabilization of the outer E. coli bacteria membrane for the peptides N4 (FIG. 4) and O1 (FIG. 5).
(§2) As comparison parameter between the peptides, the times were ascertained from this at which 50% of the final signal level was reached. For this purpose, the equation with the percentage membrane permeabilization y, the time x in minutes, the lower plateau A1, the upper plateau A2, the point of inflection Log X0 and the Hill incline p
(§3) [formula] was used. The calculation of the parameters A1, A2, Log X0 and p was performed by the program by reference to the compensating curve. Further resolution of equation 5.1 for the case y=50 then produced for x the desired time at which the half-maximum signal level was reached.

E. coli ML-35p [2] = assay: Kinetics of permeabilization of the outer bacteria membrane (nitrocefin); format: cell-based, Escherichia coli
Protocol: as §1, with “model.” for “model. As representative examples, FIGS. 4 and 5 show the graphical evaluation for the kinetic investigation of the permeabilization of the outer E. coli bacteria membrane for the peptides N4 (FIG. 4) and O1 (FIG. 5).”
as §2, §3

| Compound | Inner membrane, time to 50% of final signal (E. coli ML-35p [1]; 4 μM peptide) [min] | Inner membrane, time to 50% of final signal (E. coli ML-35p [1]; 8 μM peptide) [min] | Inner membrane, time to 50% of final signal (E. coli ML-35p [1]; 16 μM peptide) [min] | Inner membrane, time to 50% of final signal (E. coli ML-35p [1]; 32 μM peptide) [min] | Outer membrane, time to 50% of final signal (E. coli ML-35p [2]; 4 μM peptide) [min] | Outer membrane, time to 50% of final signal (E. coli ML-35p [2]; 8 μM peptide) [min] | Outer membrane, time to 50% of final signal (E. coli ML-35p [2]; 16 μM peptide) [min] | Outer membrane, time to 50% of final signal (E. coli ML-35p [2]; 32 μM peptide) [min] |
| --- | --- | --- | --- | --- | --- | --- | --- | --- |
| CC[C@H](C)[C@H](NC(=O)CN)C(=O)NCC(=O)N[C@@H](C)C(=O)N[C@H](C(=O)N[C@@H](CC(C)C)C(=O)N[C@@H](CCCCN)C(=O)N[C@H](C(=O)N[C@@H](CC(C)C)C(=O)N[C@H](C(=O)N[C@H](C(=O)NCC(=O)N[C@@H](CC(C)C)C(=O)N1CCC[C@H]1C(=O)N[C@@H](C)C(=O)N[C@@H](CC(C)C)C(=O)N[C@H](C(=O)N[C@@H](CO)C(=O)N[C@@H](Cc1c[nH]c2ccccc12)C(=O)N[C@H](C(=O)N[C@@H](CCCCN)C(=O)N[C@@H](CCCNC(=N)N)C(=O)N[C@@H](CCCCN)C(=O)N[C@@H](CCCNC(=N)N)C(=O)N[C@@H](CCC(N)=O)C(=O)N[C@@H](CCC(N)=O)C(N)=O)[C@@H](C)CC)[C@@H](C)CC)[C@@H](C)O)[C@@H](C)O)C(C)C)C(C)C [Melittin] | 18 | 12 | 9 | 6 |  |  |  |  |
| ILPWKWPWWPWRR [Indolicidin] | >90 | >90 | >90 | >90 | >90 | >90 | >90 | >90 |
| KILILIKRK-OH [N4] | >90 | >90 | >90 | >90 | 54 | 49 | 31 | 17 |
| KRKRKILILIKRK-OH [N1] | >90 | >90 | 38 | 32 | 21 | 14 | 12 | 11 |
| MPRRRRSSSRPVRRRRRPRVSRRRRRRGGRRR (Protamine) [protamine from salmon, grade IV, histone-free (Sigma-Aldrich)] | >90 | >90 | >90 | >90 | <1 | <1 | <1 | <1 |

From patent US10556926B2, “Synthetic artificial peptides with antimicrobial effect” (priority 2014, dated 2020)
